# Results: US9084828B2, “Oligomer-protein tyrosine kinase inhibitor conjugates” (Nektar Therapeutics, priority 2009, dated 2015)
# Biological target: ABL (Homo sapiens, UniProt P00519)
# Experiment: ABL tyrosine kinase inhibition, off-chip incubation mobility-shift kinase assay (Caliper LABCHIP 3000)
# Conditions: for IC50: ABL, ATP at Km 14 μM, unit inferred; for ABL AVG % Activity at Specific Concentration: average of replicate wells
# [1] = at 1.0E−09 (concentration unit not given)
# [2] = at 1.0E−10 (concentration unit not given)
# [3] = at 1.0E−11 (concentration unit not given)
# [4] = at 3.0E−09 (concentration unit not given)
# [5] = at 3.0E−10 (concentration unit not given)
# [6] = at 3.0E−11 (concentration unit not given)
# Chain of ABL (P00519 whole entry): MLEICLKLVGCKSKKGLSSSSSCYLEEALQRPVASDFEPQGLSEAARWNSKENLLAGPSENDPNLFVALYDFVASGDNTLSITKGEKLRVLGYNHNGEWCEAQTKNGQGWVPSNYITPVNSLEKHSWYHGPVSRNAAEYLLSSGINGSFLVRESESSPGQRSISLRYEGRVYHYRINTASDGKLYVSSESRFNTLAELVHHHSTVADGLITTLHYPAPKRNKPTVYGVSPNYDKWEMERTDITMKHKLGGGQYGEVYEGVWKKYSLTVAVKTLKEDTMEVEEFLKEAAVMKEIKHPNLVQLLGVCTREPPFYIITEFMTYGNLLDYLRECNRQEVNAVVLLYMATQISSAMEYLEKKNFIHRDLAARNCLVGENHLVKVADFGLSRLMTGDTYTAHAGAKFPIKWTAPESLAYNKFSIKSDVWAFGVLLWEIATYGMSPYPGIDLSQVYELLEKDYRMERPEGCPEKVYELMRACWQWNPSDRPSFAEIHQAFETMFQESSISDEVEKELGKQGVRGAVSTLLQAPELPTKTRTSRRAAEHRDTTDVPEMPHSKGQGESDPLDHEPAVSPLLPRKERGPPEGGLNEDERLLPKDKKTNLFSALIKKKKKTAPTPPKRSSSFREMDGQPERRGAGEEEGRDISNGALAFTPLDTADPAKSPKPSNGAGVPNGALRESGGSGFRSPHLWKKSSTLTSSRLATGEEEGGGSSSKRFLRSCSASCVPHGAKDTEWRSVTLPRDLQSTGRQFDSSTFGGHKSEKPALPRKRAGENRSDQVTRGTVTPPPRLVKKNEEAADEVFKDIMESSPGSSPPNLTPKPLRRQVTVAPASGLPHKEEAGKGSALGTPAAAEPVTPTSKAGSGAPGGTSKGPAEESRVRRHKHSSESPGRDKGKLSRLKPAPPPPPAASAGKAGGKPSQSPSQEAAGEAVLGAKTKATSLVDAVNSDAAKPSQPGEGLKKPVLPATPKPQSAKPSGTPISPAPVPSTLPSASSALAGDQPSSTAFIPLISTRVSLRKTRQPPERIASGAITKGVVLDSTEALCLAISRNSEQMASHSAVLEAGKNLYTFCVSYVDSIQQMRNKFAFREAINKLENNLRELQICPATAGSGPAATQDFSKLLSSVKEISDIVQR
Compound,IC50 [nM],ABL AVG % Activity at Specific Concentration [1] [%],ABL AVG % Activity at Specific Concentration [2] [%],ABL AVG % Activity at Specific Concentration [3] [%],ABL AVG % Activity at Specific Concentration [4] [%],ABL AVG % Activity at Specific Concentration [5] [%],ABL AVG % Activity at Specific Concentration [6] [%]
COCCOCCOCCOCCOCCOCCOCCOCCOCCNC(=O)OCCN1CCN(c2cc(Nc3ncc(C(=O)Nc4c(C)cccc4Cl)s3)nc(C)n2)CC1 [mPEG9-NHCOO-Dasatinib],0.31,4,80,97,−1,47,92
COCCOCCOCCOCC(=O)N[C@H](C(=O)OCCN1CCN(c2cc(Nc3ncc(C(=O)Nc4c(C)cccc4Cl)s3)nc(C)n2)CC1)C(C)C [mPEG3-Val-Dasatinib],0.37,10,85,98,0,54,95
COCCOCCOCCOCC(=O)NC(CC(C)C)C(=O)OCCN1CCN(c2cc(Nc3ncc(C(=O)Nc4c(C)cccc4Cl)s3)nc(C)n2)CC1 (centres unmarked) [mPEG3-Leu-Dasatinib],0.43,14,85,99,1,62,97
COCCOCCOCCOCCOCCNC(=O)OCCN1CCN(c2cc(Nc3ncc(C(=O)Nc4c(C)cccc4Cl)s3)nc(C)n2)CC1 [mPEG5-NHCOO-Dasatinib],0.3,4,80,97,−1,45,94
COCCOCCOCCOCC(=O)OCCN1CCN(c2cc(Nc3ncc(C(=O)Nc4c(C)cccc4Cl)s3)nc(C)n2)CC1 [mPEG3-COO-Dasatinib],0.29,2,80,98,−1,44,92
